Results from patent publication US20100184806A1, “MODULATION OF NEUROGENESIS BY PPAR AGENTS” (BrainCells, Inc., priority 2006, published 2010).
Like-named read-outs stand apart in the source and are kept apart here.

Legend:
[1] = tested on: human neural stem cells (hNSCs)
From the text: (§1) Mitogen-free test media with a positive control for neuronal differentiation was used along with basal media without growth factors as a negative control.
(§2) A positive control for neuronal differentiation was used along with basal media without growth factors as a negative control.
(§3) Human neural stem cells (hNSCs) were isolated and grown in monolayer culture, plated, treated with varying concentrations of rosiglitazone and/or N-acetylcysteine (test compounds), and stained with TUJ-1 antibody, as described above. Mitogen-free test media with a positive control for neuronal differentiation was used along with basal media without growth factors as a negative control.
(§4) Human neural stem cells (hNSCs) were isolated and grown in monolayer culture, plated, treated with varying concentrations of ciglitazone and/or N-acetylcysteine (test compounds), and stained with TUJ-1 antibody, as described above. Mitogen-free test media with a positive control for neuronal differentiation was used along with basal media without growth factors as a negative control.
(§5) Human neural stem cells (hNSCs) were isolated and grown in monolayer culture, plated, treated with varying concentrations of pioglitazone and/or N-acetylcysteine (test compounds), and stained with TUJ-1 antibody, as described above. Mitogen-free test media with a positive control for neuronal differentiation was used along with basal media without growth factors as a negative control.
(§6) Human neural stem cells (hNSCs) were isolated and grown in monolayer culture, plated, treated with varying concentrations of troglitazone and/or N-acetylcysteine (test compounds), and stained with TUJ-1 antibody, as described above. Mitogen-free test media with a positive control for neuronal differentiation was used along with basal media without growth factors as a negative control.
(§7) The presence of synergy was determined by use of a combination index (CI). […] The CI is a quantitative measure of the nature of drug interactions, comparing the EC50's of two compounds, when each is assayed alone, to the EC50 of each compound when assayed in combination. The combination index (CI) is equal to the following formula:
(§8) where C1 and C2 are the concentrations of a first and a second compound, respectively, resulting in 50% activity in neuronal differentiation when assayed in combination; and IC1 and IC2 are the concentrations of each compound resulting in 50% activity when assayed independently.

[2] = tested on: KA, AMPA, and NMDA iGlu receptors; conditions: cited from earlier work
mGlu7 and mGlu8 = conditions: at higher concentrations (e.g., above 1 μM); cited from earlier work
human mGlu2 receptors = human mGlu2 receptors (Homo sapiens, UniProt Q14416); conditions: low nanomolar range, e.g. below about 10 nM, or below about 5 nM; read-out: EC50 against human mGlu2 receptors in vitro; cited from earlier work
Sequence of human mGlu2 receptors (Q14416 19-872): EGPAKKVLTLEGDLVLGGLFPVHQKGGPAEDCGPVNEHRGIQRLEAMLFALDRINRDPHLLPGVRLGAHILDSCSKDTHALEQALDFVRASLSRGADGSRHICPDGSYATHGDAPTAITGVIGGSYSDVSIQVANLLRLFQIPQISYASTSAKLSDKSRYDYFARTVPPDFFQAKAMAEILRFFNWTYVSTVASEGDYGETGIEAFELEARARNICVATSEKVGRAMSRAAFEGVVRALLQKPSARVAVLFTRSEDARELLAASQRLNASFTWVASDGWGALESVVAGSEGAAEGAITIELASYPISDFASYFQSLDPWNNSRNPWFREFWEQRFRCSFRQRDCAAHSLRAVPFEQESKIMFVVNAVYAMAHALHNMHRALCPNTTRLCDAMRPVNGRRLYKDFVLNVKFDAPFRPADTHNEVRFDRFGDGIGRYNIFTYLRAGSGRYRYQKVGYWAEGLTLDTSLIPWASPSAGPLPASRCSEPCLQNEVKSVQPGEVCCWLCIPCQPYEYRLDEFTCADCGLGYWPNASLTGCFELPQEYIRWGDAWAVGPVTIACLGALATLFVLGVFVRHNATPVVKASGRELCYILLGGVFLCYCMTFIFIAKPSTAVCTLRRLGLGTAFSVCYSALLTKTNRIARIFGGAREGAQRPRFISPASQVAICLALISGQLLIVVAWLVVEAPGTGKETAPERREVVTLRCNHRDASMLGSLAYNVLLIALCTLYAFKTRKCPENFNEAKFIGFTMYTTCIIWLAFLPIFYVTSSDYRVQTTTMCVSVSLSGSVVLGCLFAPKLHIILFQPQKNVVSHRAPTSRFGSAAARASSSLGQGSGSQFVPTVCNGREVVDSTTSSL

human mGlu3 receptors = human mGlu3 receptors (Homo sapiens, UniProt Q14832); conditions: low nanomolar range, e.g. below about 10 nM, or below about 5 nM; read-out: EC50 against human mGlu3 receptors in vitro; cited from earlier work
Sequence of human mGlu3 receptors (Q14832 23-879): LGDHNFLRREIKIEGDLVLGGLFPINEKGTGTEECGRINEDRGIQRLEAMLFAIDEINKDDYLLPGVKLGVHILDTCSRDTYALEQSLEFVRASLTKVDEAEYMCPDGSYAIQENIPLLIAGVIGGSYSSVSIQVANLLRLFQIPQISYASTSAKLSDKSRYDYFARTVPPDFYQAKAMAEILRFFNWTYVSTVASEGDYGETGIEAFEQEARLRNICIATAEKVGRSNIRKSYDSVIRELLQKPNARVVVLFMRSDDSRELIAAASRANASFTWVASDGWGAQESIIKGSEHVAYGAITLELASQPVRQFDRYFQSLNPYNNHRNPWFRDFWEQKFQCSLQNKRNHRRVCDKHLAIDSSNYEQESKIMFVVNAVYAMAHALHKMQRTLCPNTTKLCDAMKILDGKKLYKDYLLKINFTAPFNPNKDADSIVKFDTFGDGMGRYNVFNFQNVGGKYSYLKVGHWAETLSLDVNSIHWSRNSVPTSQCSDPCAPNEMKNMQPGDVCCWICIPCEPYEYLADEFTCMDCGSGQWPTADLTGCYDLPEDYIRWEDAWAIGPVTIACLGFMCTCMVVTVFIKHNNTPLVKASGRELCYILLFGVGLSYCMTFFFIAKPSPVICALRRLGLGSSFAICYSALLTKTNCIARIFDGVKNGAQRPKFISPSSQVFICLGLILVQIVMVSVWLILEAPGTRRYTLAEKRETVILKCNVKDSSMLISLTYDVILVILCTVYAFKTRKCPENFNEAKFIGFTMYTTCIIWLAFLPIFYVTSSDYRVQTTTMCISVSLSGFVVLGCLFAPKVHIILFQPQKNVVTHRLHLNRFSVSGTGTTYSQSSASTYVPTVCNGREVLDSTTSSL

[3] = tested on: human neural stem cells (hNSCs); experiment: Neuronal differentiation of human neural stem cells (TUJ-1 staining); conditions: read-out: EC50, neuronal differentiation, extrapolated, agent alone, extrapolated based on the data
From the text: as §1, §2, §3, §4, §5, §6, §7, §8

[4] = tested on: Group I or Group III receptors; conditions: at sub-mM concentrations; cited from earlier work
mGluR2 = mGluR2 (Homo sapiens, UniProt Q14416); conditions: read-out: IC50 against mGluR2; cited from earlier work
Sequence of mGluR2 (Q14416 19-872): as the sequence (Q14416 19-872) above

mGluR3 = mGluR3 (Homo sapiens, UniProt Q14832); conditions: read-out: IC50 against mGluR3; cited from earlier work
Sequence of mGluR3 (Q14832 23-879): as the sequence (Q14832 23-879) above

For `CN(CCOc1ccc(CC2SC(=O)NC2=O)cc1)c1ccccn1` (racemic) [rosiglitazone, (RS)-5-[4-(2-[methyl(pyridin-2-yl)amino]ethoxy)-benzyl]thiazolidine-2,4-dione], which EC50 [1] is on record?
The EC50 was 1.8 µM.

For `CCc1ccc(CCOc2ccc(CC3SC(=O)NC3=O)cc2)nc1` (racemic) [pioglitazone, (RS)-5-(4-[2-(5-ethylpyridin-2-yl)ethoxy]benzyl)-thiazolidine-2,4-dione], which EC50 [1] is on record?
Its EC50 is 0.348 µM.

For `CC1(COc2ccc(CC3SC(=O)NC3=O)cc2)CCCCC1` (stereo not shown) [ciglitazone, 5-{4-[(1-methylcyclohexyl)methoxy]benzyl}-1,3-thiazolidine-2,4-dione], which EC50 [1] is on record?
Its EC50 is 0.1 µM.

For `CC(C)(Oc1ccc(C2CC2(Cl)Cl)cc1)C(=O)O` (stereo not shown) [ciprofibrate], which EC50 [1] is on record?
Its EC50 is 2.1 µM.

Which results are given for `N[C@](CC1c2ccccc2Oc2ccccc21)(C(=O)O)[C@H]1C[C@@H]1C(=O)O` [LY341495, (2S)-2-amino-2-(1S,2S-2-carboxycycloprop-1-yl)-3-(xanth-9-yl) propanoic acid]?
activity against KA, AMPA, and NMDA iGlu receptors [2]: substantially inactive; activity against mGlu7 and mGlu8 (mGlu7 and mGlu8): antagonist activity

With `N[C@@]1(C(=O)O)CO[C@H]2[C@H](C(=O)O)[C@H]21` [LY379268, (−)-2-oxa-4-aminobicyclohexane-4,6-dicarboxylic acid] as the molecule, how does the EC50 (human mGlu2 receptors) read?
Its EC50 is less than 0.01 µM.

What about the EC50 (human mGlu3 receptors) of the same molecule?
Its EC50 is less than 0.01 µM.

With `O=C(Nc1ccncc1)c1cc([N+](=O)[O-])ccc1Cl` [T0070907] as the molecule, how does the EC50 [3] read?
Its EC50 is 5.4 µM.

What does the source list for `NC1(C(=O)O)CCc2cc(P(=O)(O)O)ccc21` (racemic) [APICA, (RS)-1-amino-5-phosphonoindan-1-carboxylic acid]?
activity against Group I or Group III receptors [4]: no appreciable activity; IC50 (mGluR2): ~30 µM; IC50 (mGluR3): ~30 µM

With `CCOC(=O)C(C)(C)Oc1ccc(Cl)cc1` [clofibrate] as the molecule, how does the EC50 [1] read?
The EC50 was 2.6 µM.

With `Cc1c(C)c2c(c(C)c1O)CCC(C)(COc1ccc(CC3SC(=O)NC3=O)cc1)O2` (stereo not shown) [troglitazone, 5-(4-[(6-hydroxy-2,5,7,8-tetramethylchroman-2-yl)methoxy]benzyl)thiazolidine-2,4-dione] as the molecule, how does the EC50 [1] read?
Its EC50 is 10 µM.

With `CC(=O)N[C@@H](CS)C(=O)O` [NAC, N-acetyl-L-cysteine] as the molecule, how does the EC50 [1] read?
The EC50 was 5.55 µM.

With `Nc1c2c(nc3ccccc13)CCCC2` [tacrine] as the molecule, how does the EC50 [1] read?
The EC50 was 12.6 µM.
